Measured values: US20220088146A1, “Melanocortin Receptor-Specific Peptide Formulations and Methods for Gastrointestinal Tract-Specific Delivery” (Palatin Technologies, Inc., priority 2018, published 2022)
Bridge positions count the residues as written; N and C are the ends. Square brackets hold non-standard residues; d marks the D form. Peptide text beside a SMILES is read from it. dPhe(3,4-F2) = N[C@H](Cc1ccc(F)c(F)c1)C(=O)O; dPhe(3-Cl) = N[C@H](Cc1cccc(Cl)c1)C(=O)O; dPhe(4-Cl) = N[C@H](Cc1ccc(Cl)cc1)C(=O)O; dPhe(4-Me) = Cc1ccc(C[C@@H](N)C(=O)O)cc1; dPhe(2-Cl) = N[C@H](Cc1ccccc1Cl)C(=O)O; dPhe(4-F) = N[C@H](Cc1ccc(F)cc1)C(=O)O; dPhe(2-F) = N[C@H](Cc1ccccc1F)C(=O)O; Nle = CCCC[C@H](N)C(=O)O; Orn = NCCC[C@H](N)C(=O)O; Dab = NCC[C@H](N)C(=O)O

Target: hMC1r (Homo sapiens, UniProt Q01726)
Sequence (Q01726 whole entry): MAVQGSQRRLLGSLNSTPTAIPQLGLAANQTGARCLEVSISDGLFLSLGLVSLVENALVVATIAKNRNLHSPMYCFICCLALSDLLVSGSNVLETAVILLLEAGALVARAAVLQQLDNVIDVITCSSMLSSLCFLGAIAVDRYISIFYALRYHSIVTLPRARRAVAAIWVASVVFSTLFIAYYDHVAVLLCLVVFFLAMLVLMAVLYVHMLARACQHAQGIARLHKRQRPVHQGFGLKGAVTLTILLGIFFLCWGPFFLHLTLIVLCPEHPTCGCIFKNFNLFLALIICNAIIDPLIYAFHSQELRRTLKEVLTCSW
Assay: Assay for agonist activity: cAMP accumulation in HBL melanoma cells
Assay type: cell-based
Set-up: endogenous in cells; host or cells: HBL human melanoma cells
Conditions: HBL, compared to NDP-α-MSH as 100%, read-out: MC-1 Emax (average; cAMP HBL)
Protocol: 8.2 Assay for Agonist Activity.
Confluent HBL cells that express hMC1r or HEK-293 cells that express recombinant hMC4r were detached from culture plates by incubation in enzyme-free cell dissociation buffer. Dispersed cells were suspended in Earle's Balanced Salt Solution containing 10 mM HEPES (pH 7.5), 1 mM MgCl2, 1 mM glutamine, 0.5% albumin and 0.3 mM 3-isobutyl-1-methyl-xanthine (IBMX), a phosphodiesterase inhibitor. The cells were plated in 96-well plates at a density of 0.4×10^5 cells per well for HBL cells and 0.5×10^5 cells per well for HEK-293 cells and pre-incubated for 10 minutes. Cells were exposed for 15 minutes at 37° C. to peptides of the present invention dissolved in DMSO (final DMSO concentration of 1%) at a concentration range of 0.05-5000 nM in a total assay volume of 200 μL. […] Data analysis was performed by nonlinear regression analysis with Graph-Pad Prism® software.
All results are expressed in nM except for Emax values, which are percentage values. Peptides with the captioned primary sequence were synthesized and purified as described in Section 7 above, with the resulting peptide having the structure depicted.

SMILES	Emax [%]
CCCC[C@H](NC(C)=O)C(=O)N[C@H]1CCC(=O)NCC[C@@H](C(N)=O)NC(=O)[C@H](CCCNC(=N)N)NC(=O)[C@@H](Cc2ccccc2)NC(=O)[C@H](Cc2c[nH]cn2)NC1=O [Example 9.32, Ac-Nle-cyclo(Glu-His-D-Phe-Arg-Dab)-NH2]	85
CCCC[C@H](NC(C)=O)C(=O)N[C@H]1CCC(=O)NCC[C@@H](C(=O)N[C@@H](Cc2c[nH]c3ccccc23)C(N)=O)NC(=O)[C@H](CCCNC(=N)N)NC(=O)[C@@H](Cc2ccccc2)NC(=O)[C@H](C)NC1=O [Example 9.36, Ac-Nle-cyclo(Glu-Ala-D-Phe-Arg-Dab)-Trp-NH2]	86
CCCC[C@H](NC(C)=O)C(=O)N[C@H]1CCC(=O)NCC[C@@H](C(=O)N[C@@H](Cc2c[nH]c3ccccc23)C(N)=O)NC(=O)[C@H](CCCNC(=N)N)NC(=O)[C@@H](Cc2ccccc2)NC(=O)[C@H](CCCNC(=N)N)NC1=O [Example 9.37, Ac-Nle-cyclo(Glu-Arg-D-Phe-Arg-Dab)-Trp-NH2]	100
CCCC[C@H](NC(C)=O)C(=O)N[C@H]1CCC(=O)NCC[C@@H](C(=O)N[C@@H](Cc2c[nH]c3ccccc23)C(N)=O)NC(=O)[C@H](CCCNC(=N)N)NC(=O)[C@@H](Cc2ccccc2)NC(=O)[C@H](CCCNC(N)=O)NC1=O [Example 9.38, Ac-Nle-cyclo(Glu-Cit-D-Phe-Arg-Dab)-Trp-NH2]	97
CCCC[C@H](NC(C)=O)C(=O)N[C@H]1CCC(=O)NCC[C@@H](C(=O)N[C@@H](CCCCN)C(N)=O)NC(=O)[C@H](CCCNC(=N)N)NC(=O)[C@@H](Cc2ccccc2)NC(=O)[C@H](Cc2c[nH]cn2)NC1=O [Example 9.39, Ac-Nle-cyclo(Glu-His-D-Phe-Arg-Dab)-Lys-NH2]	91
CCCC[C@H](NC(C)=O)C(=O)N[C@H]1CCC(=O)NCC[C@@H](C(=O)N[C@@H](Cc2c[nH]c3ccccc23)C(N)=O)NC(=O)[C@H](CCCNC(=N)N)NC(=O)[C@@H](Cc2ccccc2)NC(=O)[C@H](CCN)NC1=O [Example 9.41, Ac-Nle-cyclo(Glu-Dab-D-Phe-Arg-Dab)-Trp-NH2]	108
CCCC[C@H](NC(C)=O)C(=O)N[C@H]1CCC(=O)NCC[C@@H](C(=O)N[C@@H](Cc2c[nH]c3ccccc23)C(N)=O)NC(=O)[C@H](CCCNC(=N)N)NC(=O)[C@@H](Cc2ccccc2)NC(=O)[C@H](CCCN)NC1=O [Example 9.42, Ac-Nle-cyclo(Glu-Orn-D-Phe-Arg-Dab)-Trp-NH2]	109
CCCC[C@H](NC(C)=O)C(=O)N[C@H]1CCC(=O)NCC[C@@H](C(N)=O)NC(=O)[C@H](CCCNC(=N)N)NC(=O)[C@@H](Cc2ccccc2)NC(=O)[C@H](CCCN)NC1=O [Example 9.56, Ac-Nle-cyclo(Glu-Orn-D-Phe-Arg-Dab)-NH2] (Ac-[Nle]E[Orn][dF]R[Dab]-NH2; lactam 2-6)	102
CCCC[C@H](NC(C)=O)C(=O)N[C@H]1CCC(=O)NCC[C@@H](C(N)=O)NC(=O)[C@H](CCCNC(=N)N)NC(=O)[C@@H](Cc2ccccc2Cl)NC(=O)[C@H](CCCN)NC1=O [Example 9.57, Ac-Nle-cyclo(Glu-Orn-D-Phe(2-Cl)-Arg-Dab)-NH2] (Ac-[Nle]E[Orn][dPhe(2-Cl)]R[Dab]-NH2; lactam 2-6)	88
CCCC[C@H](NC(C)=O)C(=O)N[C@H]1CCC(=O)NCC[C@@H](C(N)=O)NC(=O)[C@H](CCCNC(=N)N)NC(=O)[C@@H](Cc2cccc(Cl)c2)NC(=O)[C@H](CCCN)NC1=O [Example 9.58, Ac-Nle-cyclo(Glu-Orn-D-Phe(3-Cl)-Arg-Dab)-NH2] (Ac-[Nle]E[Orn][dPhe(3-Cl)]R[Dab]-NH2; lactam 2-6)	86
CCCC[C@H](NC(C)=O)C(=O)N[C@H]1CCC(=O)NCC[C@@H](C(N)=O)NC(=O)[C@H](CCCNC(=N)N)NC(=O)[C@@H](Cc2ccccc2F)NC(=O)[C@H](CCCN)NC1=O [Example 9.60, Ac-Nle-cyclo(Glu-Orn-D-Phe(2-F)-Arg-Dab)-NH2] (Ac-[Nle]E[Orn][dPhe(2-F)]R[Dab]-NH2; lactam 2-6)	95
CCCC[C@H](NC(C)=O)C(=O)N[C@H]1CCC(=O)NCC[C@@H](C(N)=O)NC(=O)[C@H](CCCNC(=N)N)NC(=O)[C@@H](Cc2ccc(F)cc2)NC(=O)[C@H](CCCN)NC1=O [Example 9.61, Ac-Nle-cyclo(Glu-Orn-D-Phe(4-F)-Arg-Dab)-NH2] (Ac-[Nle]E[Orn][dPhe(4-F)]R[Dab]-NH2; lactam 2-6)	102
CCCC[C@H](NC(C)=O)C(=O)N[C@H]1CCC(=O)NCC[C@@H](C(N)=O)NC(=O)[C@H](CCCNC(=N)N)NC(=O)[C@@H](Cc2ccc(C)cc2)NC(=O)[C@H](CCCN)NC1=O [Example 9.63, Ac-Nle-cyclo(Glu-Orn-D-Phe(4-Me)-Arg-Dab)-NH2] (Ac-[Nle]E[Orn][dPhe(4-Me)]R[Dab]-NH2; lactam 2-6)	96
CCCC[C@H](NC(C)=O)C(=O)N[C@H]1CCC(=O)NCC[C@@H](C(N)=O)NC(=O)[C@H](CCCNC(=N)N)NC(=O)[C@@H](Cc2ccc(OC)cc2)NC(=O)[C@H](CCCN)NC1=O [Example 9.64, Ac-Nle-cyclo(Glu-Orn-D-Phe(4-OMe)-Arg-Dab)-NH2] (Ac-[Nle]E[Orn][dY](Me)R[Dab]-NH2; lactam 2-6)	99
CCCC[C@H](NC(C)=O)C(=O)N[C@H]1CCC(=O)NCC[C@@H](C(=O)N[C@@H](Cc2c[nH]c3ccccc23)C(N)=O)NC(=O)[C@H](CCCNC(=N)N)NC(=O)[C@@H](Cc2ccccc2)NC(=O)[C@H]2CCCN2C1=O [Example 9.66, Ac-Nle-cyclo(Glu-Pro-D-Phe-Arg-Dab)-Trp-NH2]	97

Continued, values first:

Emax [%]	SMILES
78	CCCC[C@H](NC(C)=O)C(=O)N[C@H]1CCNC(=O)CCC(=O)NC[C@@H](C(=O)N[C@@H](Cc2c[nH]c3ccccc23)C(N)=O)NC(=O)[C@H](CCCNC(=N)N)NC(=O)[C@@H](Cc2ccccc2)NC(=O)[C@H](Cc2c[nH]cn2)NC1=O [Example 9.29, Ac-Nle-cyclo(Dab-His-D-Phe-Arg-Dap)-Trp-NH2]
72	CCCC[C@H](NC(C)=O)C(=O)N[C@H]1CCC(=O)NCC[C@@H](C(=O)N[C@@H](Cc2cccc3ccccc23)C(N)=O)NC(=O)[C@H](CCCNC(=N)N)NC(=O)[C@@H](Cc2ccccc2)NC(=O)[C@H](Cc2c[nH]cn2)NC1=O [Example 9.30, Ac-Nle-cyclo(Glu-His-D-Phe-Arg-Dab)-Nal 1-NH2]
73	CCCC[C@H](NC(C)=O)C(=O)N[C@H]1CCC(=O)NCC[C@@H](C(N)=O)NC(=O)[C@H](C)NC(=O)[C@@H](Cc2ccccc2)NC(=O)[C@H](Cc2c[nH]cn2)NC1=O [Example 9.33, Ac-Nle-cyclo(Glu-His-D-Phe-Ala-Dab)-NH2]
59	CCCC[C@H](NC(C)=O)C(=O)N[C@H]1CCC(=O)NCC[C@@H](C(=O)N[C@@H](Cc2c[nH]c3ccccc23)C(N)=O)NC(=O)CNC(=O)[C@@H](Cc2ccccc2)NC(=O)[C@H](Cc2c[nH]cn2)NC1=O [Example 9.34, Ac-Nle-cyclo(Glu-His-D-Phe-Gly-Dab)-Trp-NH2] (Ac-[Nle]EH[dF]G[Dab]W-NH2; lactam 2-6)
108	CCCC[C@H](NC(C)=O)C(=O)N[C@H]1CCC(=O)NCC[C@@H](C(=O)N[C@@H](Cc2c[nH]c3ccccc23)C(N)=O)NC(=O)[C@H](CCCNC(=N)N)NC(=O)[C@@H](Cc2ccccc2)NC(=O)[C@H](CCCCN)NC1=O [Example 9.40, Ac-Nle-cyclo(Glu-Lys-D-Phe-Arg-Dab)-Trp-NH2]
51	CCCC[C@H](NC(C)=O)C(=O)N[C@H]1CCC(=O)NCC[C@@H](C(N)=O)NC(=O)[C@@H](Cc2ccccc2)NC(=O)[C@H](Cc2c[nH]cn2)NC1=O [Example 9.46, Ac-Nle-cyclo(Glu-His-D-Phe-Dab)-NH2] (Ac-[Nle]EH[dF][Dab]-NH2; lactam 2-5)
72	CCCC[C@H](NC(C)=O)C(=O)N[C@H]1CCC(=O)NCC[C@@H](C(=O)N[C@@H](Cc2c[nH]c3ccccc23)C(N)=O)NC(=O)[C@H](C)NC(=O)[C@@H](Cc2ccccc2)NC(=O)[C@H](Cc2c[nH]cn2)NC1=O [Example 9.48, Ac-Nle-cyclo(Glu-His-D-Phe-Ala-Dab)-Trp-NH2]
100	CCCC[C@H](NC(C)=O)C(=O)N[C@H]1CCC(=O)NCC[C@@H](C(N)=O)NC(=O)[C@H](CCCNC(=N)N)NC(=O)[C@@H](Cc2ccc(Cl)cc2)NC(=O)[C@H](CCCN)NC1=O [Example 9.59, Ac-Nle-cyclo(Glu-Orn-D-Phe(4-Cl)-Arg-Dab)-NH2] (Ac-[Nle]E[Orn][dPhe(4-Cl)]R[Dab]-NH2; lactam 2-6)
97	CCCC[C@H](NC(C)=O)C(=O)N[C@H]1CCC(=O)NCC[C@@H](C(N)=O)NC(=O)[C@H](CCCNC(=N)N)NC(=O)[C@@H](Cc2ccc(F)c(F)c2)NC(=O)[C@H](CCCN)NC1=O [Example 9.62, Ac-Nle-cyclo(Glu-Orn-D-Phe(3,4-F)-Arg-Dab)-NH2] (Ac-[Nle]E[Orn][dPhe(3,4-F2)]R[Dab]-NH2; lactam 2-6)
102	CCCC[C@H](NC(C)=O)C(=O)N[C@H]1CCC(=O)NCC[C@@H](C(N)=O)NC(=O)[C@H](CCCNC(=N)N)NC(=O)[C@@H](Cc2ccccc2)NC(=O)[C@@H]2CCCN2C1=O [Example 9.65, Ac-Nle-cyclo(Glu-Pro-D-Phe-Arg-Dab)-NH2]
